Tests used:
Assay in all cases: relative viability (nuclei count vs DMSO), 5 days (fraction); higher = more cells survive
[1] = compound: C1/C(=C\C2=CC=CS2)/C(=O)/C(=C/C3=CC=CS3)/C1 + CC(=O)Nc1cccc(-n2c(=O)n(C3CC3)c(=O)c3c(Nc4ccc(I)cc4F)n(C)c(=O)c(C)c32)c1 [Trametinib] (partner 0.02 µM)
Procedure, shortened: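 Each reported value is a median over duplicate plates. It expresses relative viability: treated-well nuclei count divided by vehicle-well nuclei count. Lung cancer cell lines in 1536-well plates were dosed by pin tool a day after seeding, alone with one drug or with a fixed anchor-drug dose plus five library-drug doses (not always all listed) in √10 steps, and nuclei were counted after 5 days.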

[2] = compound: C1/C(=C\C2=CC=CS2)/C(=O)/C(=C/C3=CC=CS3)/C1
Procedure, shortened: (§1)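 MetaXpress counted nuclei in 4× images of lung cancer cell lines that had been fixed, permeabilised and Hoechst-stained in one step. Before that, cells in 1536-well plates were kept overnight at 37 °C, pinned with five √10-spaced library-drug doses on vehicle-anchored plates, and cultured 5 days without medium change. Viability takes treated-well nuclei over vehicle-well nuclei and uses the median across plates. Plates were accepted only at control CV below 25% and at least one doubling.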

TPCA-1 = compound: C1=CC(=CC=C1C2=CC(=C(S2)NC(=O)N)C(=O)N)F [TPCA-1]
Procedure, shortened: as §1

Lestaurtinib = compound: C[C@]12O[C@H](C[C@]1(O)CO)n1c3ccccc3c3c4c(c5c6ccccc6n2c5c31)CNC4=O [Lestaurtinib]
Procedure, shortened: as §1

Cell Line	relative viability ([1]; first compound 0.2 µM)	relative viability ([1]; first compound 0.6325 µM)	relative viability ([1]; first compound 2 µM)	relative viability ([1]; first compound 6.325 µM)	relative viability ([1]; first compound 20 µM)	relative viability ([2]; 0.2 µM)	relative viability ([2]; 0.6325 µM)	relative viability ([2]; 2 µM)	relative viability ([2]; 6.325 µM)	relative viability ([2]; 20 µM)	relative viability (TPCA-1; 0.04 µM)	relative viability (TPCA-1; 0.1265 µM)	relative viability (TPCA-1; 0.4 µM)	relative viability (TPCA-1; 1.265 µM)	relative viability (TPCA-1; 4 µM)	relative viability (Lestaurtinib; 0.005 µM)	relative viability (Lestaurtinib; 0.01581 µM)	relative viability (Lestaurtinib; 0.05 µM)	relative viability (Lestaurtinib; 0.1581 µM)	relative viability (Lestaurtinib; 0.5 µM)
NCI-H1975	0.345	0.326	0.282	0.321	0.362	0.99	0.891	0.886	0.838	0.969	0.974	0.887	0.932	0.87	0.576	1.04	1.03	0.829	0.774	0.649
NCI-H358	0.124	0.134	0.148	0.133	0.132	1.09	0.915	0.963	0.754	0.933	1.34	0.832	0.984	0.767	0.401	0.839	0.748	0.493	0.397	0.207
PC-3 [JPC-3]		0.731	0.753	0.613	0.759	1.04	1.06	1.03	0.949	1.08	1.04	1	1.04	1.04	0.951	1.07	1.08	0.957	0.77	0.624
NCI-H1792	0.432	0.531	0.533	0.525	0.35	1.03	1.02	1.09	0.854	0.955	1.22	0.894	0.914	0.568	0.42	0.744	1.36	0.504	0.63	0.433
NCI-H596	0.807	0.763	0.871	0.699	0.727	1	0.994	1.11	0.85	0.964	1.09	0.978	1.05	1.17	0.842	1.02	0.889	0.872	1.06	1.02
RERF-LC-KJ	0.924	0.879	0.846	0.741	0.739	0.984	1.04	1.02	0.878	0.927	1.02	0.895	0.982	0.93	0.826	1.03	1.09	0.847	0.827	0.558
NCI-H322M	0.519	0.494	0.474	0.433	0.517	0.928	0.924	1.01	0.804	0.912	1.11	0.885	1.03	1.13	0.704	0.904	0.924	0.497	0.663	0.624
COR-L 105	0.421	0.463	0.447	0.402	0.451	0.989	0.895	0.956	0.71	0.836	1	0.9	0.99	0.806	0.615	0.897	0.978	0.808	0.572	0.313
NCI-H1993	0.491	0.412	0.478	0.437	0.447	1.04	0.898	1.05	0.786	0.861	0.985	0.805	0.94	1.06	0.722	1.02	0.949	0.824	0.709	0.567
NCI-H1437	0.51	0.52	0.442	0.461	0.428	0.984	0.965	0.949	0.82	0.974	1.01	1.01	1.03	0.971	0.887	1.03	1.15	0.914	0.89	0.835
EBC-1						1.08	1.07	1.01	0.888	0.972	1.15	0.975	0.991	0.973	0.988	1.04	1.15	0.818	0.756	0.428
ABC-1						0.87	1.03	1.13	0.842	0.888	1.02	0.798	0.982	0.771	0.638	0.976	1.01	0.79	0.735	0.327
NCI-H1563						1.01	0.876	1.03	0.936	0.998	0.886	0.964	0.971	0.941	0.956	1.06	1.02	0.913	0.972	0.72
NCI-H1299						0.993	1.04	0.963	0.859	0.997	1.03	0.977	0.991	1.01	1.07	1.03	1.02	0.762	0.799	0.727
A549						0.987	0.983	1.01	0.772	0.931	1.05	0.956	0.955	0.871	0.782	1.04	1	0.791	0.521	0.162
NCI-H1623						0.977	0.865	1.1	0.903	0.911	1.13	0.879	0.962	1.01	0.763	0.978	0.962	0.931	0.884	0.813
NCI-H1703						1.19	1.2	1.01	0.788	0.958	1.24	0.728	0.911	0.647	0.832	0.945	0.749	0.591	0.272	0.151
Calu-6						1.06	1.05	0.993	0.944	0.985	1.06	0.95	0.982	1	0.72	1.05	0.999	0.621	0.518	0.204
